Reference: PubChem BioAssay (NCI)
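Exposure lasted 48 hours, with cells grown in 96-well plates and compounds tested at five concentrations. TGI: total growth inhibition.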

What was measured:
Experiment in all cases: NCI anticancer screen, dose series, 48 h
[1] = system: 786-0 renal
[2] = system: A498 renal
[3] = system: A549 NSCLC
[4] = system: ACHN renal
[5] = system: BT-549 breast
[6] = system: CAKI-1 renal
[7] = system: CCRF-CEM leukemia
[8] = system: COLO 205 colon
[9] = system: DU-145 prostate
[10] = system: EKVX NSCLC
[11] = system: HCC-2998 colon
[12] = system: HCT-116 colon
[13] = system: HCT-15 colon
[14] = system: HL-60(TB) leukemia
[15] = system: HOP-62 NSCLC
[16] = system: HOP-92 NSCLC
[17] = system: HS 578T breast
[18] = system: HT29 colon
[19] = system: IGROV1 ovarian
[20] = system: K-562 leukemia
[21] = system: KM12 colon
[22] = system: LOX IMVI melanoma
[23] = system: M14 melanoma
[24] = system: MALME-3M melanoma
[25] = system: MCF7 breast
[26] = system: MDA-MB-231 breast
[27] = system: MDA-MB-435
[28] = system: MDA-N
[29] = system: MOLT-4 leukemia
[30] = system: NCI-H226 lung
[31] = system: NCI-H23 lung
[32] = system: NCI-H460 lung
[33] = system: NCI/ADR-RES ovarian
[34] = system: OVCAR-3 ovarian
[35] = system: OVCAR-4 ovarian
[36] = system: OVCAR-5 ovarian
[37] = system: OVCAR-8 ovarian
[38] = system: PC-3 prostate
[39] = system: RPMI-8226 leukemia
[40] = system: RXF 393 renal
[41] = system: SF-268 CNS
[42] = system: SF-295 CNS
[43] = system: SF-539 CNS
[44] = system: SK-MEL-2 melanoma
[45] = system: SK-MEL-28 melanoma
[46] = system: SK-MEL-5 melanoma
[47] = system: SK-OV-3 ovarian
[48] = system: SN12C renal
[49] = system: SNB-19 CNS
[50] = system: SNB-75 CNS
[51] = system: SR leukemia
[52] = system: SW-620 colon
[53] = system: T-47D breast
[54] = system: TK-10 renal
[55] = system: U251 CNS
[56] = system: UACC-257 melanoma
[57] = system: UACC-62 melanoma
[58] = system: UO-31 renal
[59] = system: NCI-H522 lung

With `COC(=O)Nc1nc2ccccc2[nH]1` the TGI [1] was greater than 100 µM, the TGI [2] was greater than 100 µM and the TGI [3] was greater than 100 µM. The TGI [4] was greater than 100 µM, the TGI [5] was greater than 100 µM and the TGI [6] was greater than 100 µM. For the same compound, the TGI [7] was greater than 100 µM, the TGI [8] was greater than 100 µM and the TGI [9] was greater than 87 µM. For the same compound, the TGI [10] was greater than 100 µM, the TGI [11] was greater than 100 µM and the TGI [12] was greater than 100 µM. It also gave a TGI [13] greater than 100 µM, a TGI [14] greater than 31.2 µM and a TGI [15] greater than 100 µM. The TGI [16] was greater than 100 µM, the TGI [17] was greater than 95.4 µM and the TGI [18] was greater than 100 µM. For the same compound, the TGI [19] was greater than 100 µM, the TGI [20] was greater than 100 µM and the TGI [21] was greater than 100 µM. For the same compound, the TGI [22] was greater than 100 µM, the TGI [23] was greater than 100 µM and the TGI [24] was greater than 100 µM. It also gave a TGI [25] greater than 100 µM, a TGI [26] greater than 100 µM and a TGI [27] of 8.05 µM. It also gave a TGI [28] of 11.6 µM, a TGI [29] greater than 100 µM and a TGI [30] greater than 100 µM. The TGI [31] was greater than 56.2 µM, the TGI [32] was greater than 100 µM and the TGI [33] was 21 µM. For the same compound, the TGI [34] was 28.6 µM, the TGI [35] was greater than 100 µM and the TGI [36] was greater than 100 µM. It also gave a TGI [37] greater than 89.1 µM, a TGI [38] greater than 100 µM and a TGI [39] greater than 100 µM. It also gave a TGI [40] greater than 100 µM, a TGI [41] greater than 100 µM and a TGI [42] of 32.9 µM. It also gave a TGI [43] of 50.5 µM, a TGI [44] greater than 100 µM and a TGI [45] greater than 100 µM. It also gave a TGI [46] greater than 100 µM, a TGI [47] greater than 31.5 µM and a TGI [48] greater than 100 µM. For the same compound, the TGI [49] was greater than 100 µM, the TGI [50] was greater than 73.8 µM and the TGI [51] was greater than 100 µM. The TGI [52] was greater than 100 µM, the TGI [53] was greater than 100 µM and the TGI [54] was greater than 100 µM. The TGI [55] was greater than 100 µM, the TGI [56] was greater than 100 µM and the TGI [57] was greater than 100 µM. The TGI [58] was greater than 100 µM.

`CC(=O)OC[C@H]1On2nnnc2[C@H](OC(C)=O)[C@@H](OC(C)=O)[C@@H]1OC(C)=O` showed a TGI [1] greater than 100 µM, a TGI [2] greater than 100 µM and a TGI [3] greater than 100 µM. For the same compound, the TGI [4] was greater than 100 µM, the TGI [5] was greater than 100 µM and the TGI [6] was greater than 100 µM. It also gave a TGI [7] greater than 100 µM, a TGI [8] greater than 100 µM and a TGI [9] greater than 100 µM. It also gave a TGI [10] greater than 100 µM, a TGI [11] greater than 100 µM and a TGI [12] greater than 100 µM. The TGI [13] was greater than 100 µM, the TGI [14] was greater than 100 µM and the TGI [15] was greater than 100 µM. It also gave a TGI [16] greater than 100 µM, a TGI [17] greater than 100 µM and a TGI [18] greater than 100 µM. For the same compound, the TGI [19] was greater than 100 µM, the TGI [20] was greater than 100 µM and the TGI [21] was greater than 100 µM. For the same compound, the TGI [22] was greater than 100 µM, the TGI [24] was greater than 100 µM and the TGI [25] was greater than 100 µM. For the same compound, the TGI [26] was greater than 100 µM, the TGI [27] was greater than 100 µM and the TGI [28] was greater than 100 µM. It also gave a TGI [29] greater than 100 µM, a TGI [30] greater than 100 µM and a TGI [31] greater than 100 µM. The TGI [32] was greater than 100 µM, the TGI [59] was greater than 100 µM and the TGI [33] was greater than 100 µM. It also gave a TGI [34] greater than 100 µM, a TGI [35] greater than 100 µM and a TGI [36] greater than 100 µM. It also gave a TGI [37] greater than 100 µM, a TGI [38] greater than 100 µM and a TGI [39] greater than 100 µM. The TGI [40] was greater than 100 µM, the TGI [41] was greater than 100 µM and the TGI [42] was greater than 100 µM. It also gave a TGI [43] greater than 100 µM, a TGI [44] greater than 100 µM and a TGI [45] greater than 100 µM. For the same compound, the TGI [46] was greater than 100 µM, the TGI [47] was greater than 100 µM and the TGI [48] was greater than 100 µM. It also gave a TGI [50] greater than 100 µM, a TGI [51] greater than 100 µM and a TGI [52] greater than 100 µM. The TGI [53] was greater than 100 µM, the TGI [54] was greater than 100 µM and the TGI [55] was greater than 100 µM. It also gave a TGI [56] greater than 100 µM, a TGI [57] greater than 100 µM and a TGI [58] greater than 100 µM.
